Results published in patent US20070154393A1, “Bioassay for volatile low molecular weight insecticides and methods of use” (priority 2005, published 2007).
Read-outs that look alike come from different tables or passages of the source.

Experiments:
[1] = tested on: Rd1 (Rdl-R) strain of Drosophila (GABA-gated chloride channel point mutation); type: in vivo, Drosophila melanogaster; details: Table 2; Rdl-R, 24 hr
From the text: (§1) Four Drosophila strains were used, all obtained from the Bloomington Drosophila Stock Center (Indiana University; Bloomington, Ind.). The Canton-S strain was used as the insecticide-susceptible standard. The Hikone-R strain is metabolically-resistant with elevated cytochrome P450 levels (Waters et al., 1984; Sundseth et al., 1989; Le Goff et al., 2003; Festucci-Buselli et al., 2005). Hikone-R is resistant to a number of insecticides, including malathion, DDT and neonicotinoids (Sundseth et al., 1989; Daborn et al., 2001). Two resistant neurological-mutant strains were also tested. […] Flies were reared in 100-ml vials capped with acetate plugs (Fisher Scientific; Suwanee, Ga.) on a commercial diet (JAZZ-MIX; Fisher Scientific). Flies were reared on a 12:12 photocycle at 24° C. and 60% relative humidity. Mixed-sex adults, less than 1-wk old, were used in bioassays.
(§2) All experimental materials were purchased from Sigma-Aldrich-Fluka (Milwaukee, Wis.) and were of 99% purity or greater. […] All volatile insecticide stocks were prepared at 100 μg/μl in analytical grade acetone. Rather than weigh the highly volatile liquid insecticides (i.e., all compounds except benzothiophene), weight was determined based on the density-volume relationship of each compound. Four serial dilutions were prepared and tested for each insecticide as described previously (Scharf et al., 2006). The insecticide synergists PBO (piperonyl butoxide) and DEF (SSS-tributyl-phosphoro-trithioate) were obtained from Fluka Chemical Co. (Basel, Switzerland) and Mobay Chemical Co. (Kansas City, Mo.). Both synergists were >95% purity. Synergist stocks were prepared at 100 μg/ml in analytical grade acetone.
(§3) Volatility bioassays were conducted exactly as described in a previous report (Scharf et al., 2006). Briefly, bioassays took place in 0.5-l glass jars with metal lids. Mixed-sex flies were isolated from lab colonies and placed in 4-ml dram vials in groups of ten, along with a dried piece of laboratory diet. The dram vials were capped with open-top septum caps that were covered with fine mesh (held in place by non-toxic glue). For bioassays, the assembled dram vials were placed into the 0.5-l jars along with a folded filter paper “tent” (Whatman #1; Vineland, N.J.). The filter paper was treated with either an insecticide dilution or acetone, the jar was sealed with the metal lid, and the bioassay proceeded for 24-hr at room temperature. Mortality was scored based on a complete lack of movement by the flies. Four concentrations plus an acetone control were tested for all insecticides. Between five and ten replicates were performed for each concentration range on each strain-insecticide combination. Synergist bioassays were performed with a slight modification. Synergist stocks were applied to dram vials at 100 μl per vial to provide assay concentrations of 10 μg per vial. […] After treatment, vials were held at an angle in a fume hood and rotated ¼-turn each minute until the acetone evaporated. Flies and diet were added as above and held for 1-hr. Assays were initiated, run, and scored as above.
(§4) Probit analysis was performed using PROC PROBIT in the SAS software package (SAS Institute; Cary, N.C.). If control mortality ever exceeded 10% in a given replicate, that replicate was discarded. Toxicity and synergist ratios at LC50 were compared statistically using the calculation described by Robertson and Preisler (1992). Using this procedure, ratios with 95% confidence intervals were calculated using a spreadsheet-based program. With this calculation, if confidence intervals include 1.0 then ratios are considered non-significant (p>0.05; Robertson and Preisler, 1992).

[2] = tested on: insecticide-susceptible Drosophila melanogaster (Canton-S strain); type: in vivo; details: for Slope ± Std. Error (best-fit probit mortality line): Table 1, 24 hr exposure, probit analysis; for Slope ± Std. Error (best-fit probit mortality line) / Slope ± Std. Error (probit mortality line): Canton-S; for Slope ± Std. Error (probit mortality line): 24 hr
Protocol: The insecticide-susceptible Canton-S strain of Drosophila was obtained from the Bloomington Drosophila stock center (Indiana University, Bloomington, Ind.), and used exclusively in all studies. Flies were reared in 100-ml vials capped with acetate plugs (Fisher Scientific; Suwannee, Ga.) on a JAZZ-MIX diet (Fisher) prepared with a 2:1 ratio of water to apple juice. Flies were reared on a 12:12 photocycle at 24° C. and ambient relative humidity. Mixed-sex adults, less than 1-wk old, were used in bioassays.
Flies were briefly anesthetized in rearing vials with a pulse of CO2 and transferred to a CO2 flowbed (Genesee Scientific; San Diego, Calif.). Using a camel hair brush and a 5×5 cm sheet of rice paper, ten flies were placed into 7.0 ml dram vials. Prior to adding flies, each vial received a 0.5 cm^3 block of rearing diet that had been sufficiently dried on a paper towel to remove excessive moisture. The vials were then capped with open-top septum caps (Fisher) that were covered with fine mesh. The mesh was applied to the septum caps in advance using hot glue; it prevented fly escape but readily permitted gas exchange. The flies were allowed 1-hr to recover from the CO2 anesthesia. After one hour, single vials with flies were placed into 0.5 L glass jars, along with a filter paper tent (see FIG. 1). In a fume hood, filter paper tents were treated with insecticide dilutions or acetone for controls. The jars were then rapidly closed tightly with a metal lid. After 24 hours of exposure, mortality was scored with the aid of a magnifying glass.
All test compounds and solvents were >99% purity, and were purchased from Sigma-Aldrich Chemical (Milwaukee, Wis.). See Table 1 for a listing of the test compounds and their structures. Insecticide stock solutions were prepared at a standard concentration of 100 μg/μl in analytical grade acetone. For liquid insecticidal compounds, density in mg/μl was used to calculate weight on a per-volume basis. Stock solutions were held at −20° C. in sealed amber vials. In bioassay jars, filter paper tents were treated with stock volumes ranging from 2 to 20 μl, depending on the inherent toxicity of the test compound. These volumes of insecticide stock provided test concentrations of 200 to 2000 μg insecticide per replicate jar. A range of 4-5 concentrations plus a control were tested for each insecticide, and each range was repeated five times over at least three days. Controls received a volume of acetone identical to the highest insecticide volume that was tested (i.e., 10 μl for menthofuran; 20 μl for all other insecticides). Between uses, bioassay jars and lids were washed in a dishwasher, then baked 12-16 hr at 90° C. in a drying oven.
Probit and regression analyses were performed using the PROC PROBIT and PROC REG procedures, respectively. […] If control mortality ever exceeded 10% in a given replicate, that replicate was discarded.
as §1

[3] = tested on: metabolically resistant Hikone-R strain of Drosophila; type: in vivo; details: Table 3, Hikone-R, 24 hr
Protocol: as §2, §3, §4

[4] = tested on: insecticide-susceptible Canton-S strain of Drosophila; type: in vivo; details: for Slope ± Std. Error (probit mortality line): Table 3, Canton-S, 24 hr
Protocol: as §2, §3, §4

[5] = Table 2, data taken from Scharf et al. (2006)

Row | Substance | Slope ± Std. Error (probit mortality line) [1] | Slope ± Std. Error (best-fit probit mortality line) [2] | Slope ± Std. Error (probit mortality line) [2, 5] | Slope ± Std. Error (probit mortality line) ([2]; Table 3, no synergist) | Slope ± Std. Error (probit mortality line) ([3]; +DEF 10 μg per bioassay vial) | Slope ± Std. Error (probit mortality line) ([3]; +PBO 10 μg per bioassay vial) | Slope ± Std. Error (probit mortality line) ([4]; +DEF 10 μg per bioassay vial) | Slope ± Std. Error (probit mortality line) ([4]; +PBO 10 μg per bioassay vial) | LC50 (95% CL) ([2]; in vivo) | DEF synergism ratio (LC50 with synergist÷LC50 without) ([4]; esterase inhibitor DEF, reduction in toxicity, strain not given, fits Canton-S of Table 3)
1 | methyl formate | 9.41 ± 2.14 | 3.27 ± 0.95 | 3.27 ± 0.95 | 3.27 ± 0.95 | 1.91 ± 0.60 | 51.10 | 3.98 ± 1.52 | 49.50 | – | –
2 | ethyl formate | 6.38 ± 1.91 | 5.18 ± 1.07 | 5.18 ± 1.07 | 5.18 ± 1.07 | 14.17 ± 1.80 | 5.17 ± 1.28 | 1.73 ± 1.35 | 4.74 ± 1.44 | 1656.0 (1486.0 − 1917.0) μg/jar | > 12 fold
